# According to patent publication US20250092065A1, “2-(INDAZOL-5-YL)-6-(PIPERIDIN-4-YL)-1,7-NAPHTHYRIDINE DERIVATIVES AND RELATED COMPOUNDS AS MODULATORS FOR SPLICING NUCLEIC ACIDS AND FOR THE TREATMENT OF PROLIFERATIVE DISEASES” (REMIX THERAPEUTICS INC., priority 2022, published 2025):
# Counter-ions that a name gives are not always drawn. Like-named read-outs stand apart in the source and are kept apart here.
# Test system: MYB mRNA
# Assay: RT-qPCR splicing assay, MYB mRNA canonical (CJ) and alternative (AJ) junction
# Format: cell-based, human
# Settings: Homo sapiens; for AC50: MYB alternative junction mRNA, read-out: MYB AJ (increase in AJ mRNA, AC50)
# Summary of the method: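 Splice switching quantified in compound-treated A673/K562 cells after 24 h exposure (top dose 10 uM, 3-fold steps, ≤0.25% DMSO), using CJ and AJ qPCR assays run at least in duplicate. RQ derived by 2^(−ΔΔCt), then percentage response.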
# [1] = MYB canonical junction mRNA, RT-qPCR, read-out: MYB CJ (decrease in CJ mRNA levels, IC50)
# [2] = canonical junction qPCR panel, Table 4, read-out: MYB IC50 (decrease in CJ mRNA levels)
Structure (SMILES),AC50 (RT-qPCR) [µM],IC50 [1] [µM],IC50 [2] [µM]
"CN[C@H]1CCN(c2cc3c(Cl)cc(-c4cc5cn(C)nc5c(C)c4O)nc3cc2C)C1 [Compound 749, 5-{4-chloro-7-methyl-6-[(3S)-3-(methylamino)pyrrolidin-1-yl]quinolin-2-yl}-2,7-dimethylindazol-6-ol]",0.1 to 1,0.1 to 1,0.1 to 1
"Cn1cc2cc(-c3ncc4cc(N5CCC(N6CCC6)CC5)ccc4n3)c(O)c(F)c2n1 [Compound 750, 5-{6-[4-(azetidin-1-yl)piperidin-1-yl]quinazolin-2-yl}-7-fluoro-2-methylindazol-6-ol]",0.1 to 1,< 0.1,< 0.1
"C[C@@H]1CN(c2ccc3nc(-c4cc5cn(C)nc5cc4O)ncc3c2)C[C@H](C)N1 [Compound 751, 5-{6-[(3R,5S)-3,5-dimethylpiperazin-1-yl]quinazolin-2-yl}-2-methylindazol-6-ol hydrochloride]",0.1 to 1,0.1 to 1,0.1 to 1
"C[C@H]1CN(c2ccc3nc(-c4cc5cn(C)nc5cc4O)ncc3c2)C[C@H](C)N1 [Compound 752, 5-{6-[(3S,5S)-3,5-dimethylpiperazin-1-yl]quinazolin-2-yl}-2-methylindazol-6-ol]",< 0.1,< 0.1,< 0.1
"C[C@@H]1CN(c2ccc3nc(-c4cc5cn(C)nc5cc4O)ncc3c2)C[C@@H](C)N1 [Compound 753, 5-{6-[(3R,5R)-3,5-dimethylpiperazin-1-yl]quinazolin-2-yl}-2-methylindazol-6-ol]",0.1 to 1,0.1 to 1,0.1 to 1
"CCN(CC)C1CCN(c2ccc3nc(-c4cc5cn(C)nc5c(F)c4O)ncc3c2)CC1 [Compound 756, 5-{6-[4-(diethylamino)piperidin-1-yl]quinazolin-2-yl}-7-fluoro-2-methylindazol-6-ol]",0.1 to 1,0.1 to 1,0.1 to 1
